Source: ChEMBL document CHEMBL1155854, “Conformationally constrained farnesoid X receptor (FXR) agonists: Naphthoic acid-based analogs of GW 4064” (Bioorg Med Chem Lett, 2008)
pIC50: −log10 of the molar value. Calls of active or inactive are those of the source. The calls are words filed in the database; no cut-off is given here.

Columns and labels:
PXR = target: T1, PXR (Homo sapiens, UniProt O75469); assay: Agonist activity at PXR by SPA assay; assay type: functional
T1 sequence (O75469 whole entry): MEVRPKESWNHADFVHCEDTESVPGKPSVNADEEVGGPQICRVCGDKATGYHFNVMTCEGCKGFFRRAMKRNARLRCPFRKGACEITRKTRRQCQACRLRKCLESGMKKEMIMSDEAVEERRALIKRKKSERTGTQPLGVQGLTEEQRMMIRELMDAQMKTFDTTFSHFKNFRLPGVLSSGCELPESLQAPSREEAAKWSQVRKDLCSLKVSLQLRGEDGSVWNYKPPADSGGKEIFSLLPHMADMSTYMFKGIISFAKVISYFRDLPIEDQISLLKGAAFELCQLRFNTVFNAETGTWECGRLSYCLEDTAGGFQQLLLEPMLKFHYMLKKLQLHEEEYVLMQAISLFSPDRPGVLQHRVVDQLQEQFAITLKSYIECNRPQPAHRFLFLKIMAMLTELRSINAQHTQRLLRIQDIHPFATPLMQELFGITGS

Cytochrome P450 3A4 [1] = target: T2, Cytochrome P450 3A4 (Homo sapiens, UniProt P08684); assay: Inhibition of CYP3A4 in pooled human liver microsome using midazolam substrate; assay type: ADME, microsomes
Cytochrome P450 3A4 [2] = target: T2, Cytochrome P450 3A4; assay: Inhibition of CYP3A4 in pooled human liver microsome using atrovastatin substrate; assay type: ADME, microsomes
[3] = Oral bioavailability in rat at 30 mg/kg; assay type: ADME, organism-based; conditions: in vivo
[4] = Clearance in iv dosed Beagle dog; assay type: ADME, organism-based, Canis lupus familiaris; conditions: in vivo
[5] = Clearance in iv dosed cynomolgus monkey; assay type: ADME, organism-based, Macaca fascicularis; conditions: in vivo
Rattus norvegicus [6] = assay: Reduction of serum alanine aminotransferase level in alpha-naphthyl-isothiocyanate-induced rat acute cholestasis model at 100 to 300 mg/kg, po bid for 4 days dosed before 2 days induction by alpha-naphthyl-isothiocyanate; assay type: functional, organism-based
[7] = target: T3, Oxysterols receptor LXR-alpha (Homo sapiens, UniProt Q13133); assay: Agonist activity at LXRalpha assessed as receptor-coactivator peptide interaction by FRET assay; assay type: functional
T3 sequence (Q13133 whole entry): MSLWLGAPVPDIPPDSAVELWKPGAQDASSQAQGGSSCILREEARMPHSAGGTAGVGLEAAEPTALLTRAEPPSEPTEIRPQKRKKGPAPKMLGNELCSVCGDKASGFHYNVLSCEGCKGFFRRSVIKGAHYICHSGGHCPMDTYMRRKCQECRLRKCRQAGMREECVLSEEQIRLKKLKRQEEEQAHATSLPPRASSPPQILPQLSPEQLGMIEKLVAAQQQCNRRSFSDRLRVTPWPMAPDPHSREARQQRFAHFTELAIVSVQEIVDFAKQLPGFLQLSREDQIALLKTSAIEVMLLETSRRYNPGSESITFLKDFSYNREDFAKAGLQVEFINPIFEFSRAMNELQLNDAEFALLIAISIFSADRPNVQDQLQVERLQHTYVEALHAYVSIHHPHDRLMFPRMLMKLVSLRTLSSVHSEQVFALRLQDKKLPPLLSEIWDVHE

Glucocorticoid receptor = target: T4, Glucocorticoid receptor (Homo sapiens, UniProt P04150); assay: Agonist activity at GR by fluorescence polarization assay; assay type: functional
T4 sequence (P04150 whole entry): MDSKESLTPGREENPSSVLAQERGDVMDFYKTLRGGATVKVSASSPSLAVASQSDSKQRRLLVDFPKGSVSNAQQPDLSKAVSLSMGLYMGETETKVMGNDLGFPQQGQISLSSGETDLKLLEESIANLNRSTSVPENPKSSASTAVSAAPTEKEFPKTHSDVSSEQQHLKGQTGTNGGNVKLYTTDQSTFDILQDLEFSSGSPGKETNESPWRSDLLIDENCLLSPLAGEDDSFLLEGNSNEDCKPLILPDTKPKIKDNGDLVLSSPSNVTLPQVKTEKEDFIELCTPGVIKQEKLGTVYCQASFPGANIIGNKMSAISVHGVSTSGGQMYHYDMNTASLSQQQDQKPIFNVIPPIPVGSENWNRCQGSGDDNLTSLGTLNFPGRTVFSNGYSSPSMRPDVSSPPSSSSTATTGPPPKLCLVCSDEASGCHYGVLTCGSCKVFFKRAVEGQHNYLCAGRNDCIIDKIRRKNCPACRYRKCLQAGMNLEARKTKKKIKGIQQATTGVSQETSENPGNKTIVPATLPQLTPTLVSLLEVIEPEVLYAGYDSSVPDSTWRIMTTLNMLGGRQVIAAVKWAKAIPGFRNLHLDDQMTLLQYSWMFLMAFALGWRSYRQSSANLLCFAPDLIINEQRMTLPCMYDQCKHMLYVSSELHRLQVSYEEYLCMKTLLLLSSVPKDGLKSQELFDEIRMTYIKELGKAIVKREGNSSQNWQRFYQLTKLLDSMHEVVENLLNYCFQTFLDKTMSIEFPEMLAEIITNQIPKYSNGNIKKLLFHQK

[8] = Half life in iv dosed mouse; assay type: ADME, organism-based; conditions: in vivo
[9] = target: T5, Peroxisome proliferator-activated receptor alpha (Homo sapiens, UniProt Q07869); assay: Agonist activity at PPARalpha by SPA assay; assay type: functional
T5 sequence (Q07869 whole entry): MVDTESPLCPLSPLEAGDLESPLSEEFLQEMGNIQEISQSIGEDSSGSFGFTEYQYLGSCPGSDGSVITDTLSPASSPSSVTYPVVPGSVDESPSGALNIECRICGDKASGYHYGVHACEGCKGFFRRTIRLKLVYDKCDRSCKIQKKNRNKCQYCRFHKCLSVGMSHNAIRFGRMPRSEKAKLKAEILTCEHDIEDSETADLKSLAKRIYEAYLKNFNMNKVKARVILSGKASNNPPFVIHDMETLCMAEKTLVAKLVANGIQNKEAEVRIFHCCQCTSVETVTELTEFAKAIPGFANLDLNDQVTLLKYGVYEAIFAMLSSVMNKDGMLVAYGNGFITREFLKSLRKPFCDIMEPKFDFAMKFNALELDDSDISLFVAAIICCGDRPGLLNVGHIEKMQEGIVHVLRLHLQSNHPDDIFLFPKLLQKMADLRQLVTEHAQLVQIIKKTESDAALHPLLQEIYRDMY

Rattus norvegicus [10] = assay: Reduction of serum HDLC level in alpha-naphthyl-isothiocyanate-induced rat acute cholestasis model at 100 to 300 mg/kg, po bid for 4 days dosed before 2 days induction by alpha-naphthyl-isothiocyanate; assay type: functional, organism-based
[11] = Selectivity for FXR over PXR

T2 sequence (P08684 whole entry): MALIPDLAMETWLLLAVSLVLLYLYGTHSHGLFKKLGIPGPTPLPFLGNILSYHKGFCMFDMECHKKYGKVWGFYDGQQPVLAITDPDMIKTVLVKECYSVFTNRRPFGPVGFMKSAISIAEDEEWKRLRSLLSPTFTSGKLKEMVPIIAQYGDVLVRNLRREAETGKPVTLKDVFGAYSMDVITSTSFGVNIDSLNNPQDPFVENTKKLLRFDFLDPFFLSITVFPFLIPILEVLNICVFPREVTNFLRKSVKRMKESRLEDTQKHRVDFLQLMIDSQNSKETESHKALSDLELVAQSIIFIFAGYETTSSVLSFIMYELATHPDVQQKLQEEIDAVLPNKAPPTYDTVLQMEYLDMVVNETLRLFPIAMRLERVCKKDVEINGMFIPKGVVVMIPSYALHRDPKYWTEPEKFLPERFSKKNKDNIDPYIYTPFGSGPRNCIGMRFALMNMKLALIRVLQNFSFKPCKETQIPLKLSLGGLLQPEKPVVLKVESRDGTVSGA

XC50 (PXR): 3.1 µM
pIC50 (Cytochrome P450 3A4 [1]): 5.14
pIC50 (Cytochrome P450 3A4 [2]): 5.34
bioavailability [3]: 7.7%
clearance [4]: 2 mL/min/kg
clearance [5]: 5.5 mL/min/kg
XC50 [7]: > 20 µM
XC50 (Glucocorticoid receptor): > 20 µM
half-life [8]: 1.6 h
XC50 [9]: > 10 µM
Selectivity ratio [11]: 35
SMILES: CC(C)c1onc(-c2c(Cl)cccc2Cl)c1COc1ccc(-c2ccc3c(C(=O)O)cccc3c2)cc1
Activity (Rattus norvegicus [6]): Active
Activity (Rattus norvegicus [10]): Active
